These results are taken from patent publication US9708325B2, “Sulfonimidoylpurinone compounds and derivatives for the treatment and prophylaxis of virus infection” (Hoffmann-La Roche Inc., priority 2015, dated 2017).

A short description of data set [1]: Metabolic stability in human liver microsomes. To be noted: 1 μM test compound, 0.5 mg/mL microsomal protein; 6.15 mL/min/kg is the limitation of assay sensitivity. The procedure:
The human microsomal stability assay is used for early assessment of metabolic stability of a test compound in human liver microsomes.
Human liver microsomes (Cat. NO.: 452117, Corning, USA; Cat. NO.: H2610, Xenotech, USA) were preincubated with test compound for 10 minutes at 37° C. in 100 mM potassium phosphate buffer, pH 7.4. The reactions were initiated by adding NADPH regenerating system. The final incubation mixtures contained 1 μM test compound, 0.5 mg/mL liver microsomal protein, 1 mM MgCL2, 1 mM NADP, 1 unit/mL isocitric dehydrogenase and 6 mM isocitric acid in 100 mM potassium phosphate buffer, pH 7.4. After incubation times of 0, 3, 6, 9, 15 and 30 minutes at 37° C., 300 μL of cold ACN (including internal standard) was added to 100 μL incubation mixture to terminate the reaction. Following precipitation and centrifugation, the amount of compound remaining in the samples were determined by LC-MS/MS. Controls of no NADPH regenerating system at zero and 30 minutes were also prepared and analyzed.
For orientation: Liver microsomes are vesicles of endoplasmic reticulum, rich in cytochrome P450 enzymes.

Data set [2] in a line: LYSA solubility. Type of data set: physicochemical. The conditions noted are these: for solubility thermodynamic: 0.05 M phosphate buffer, pH 6.5, aqueous buffer, thermodynamic from solid; for LYSA: 0.05 M phosphate buffer (pH 6.5). The procedure: LYSA solubility assay is used to determine the aqueous solubility of a compound. Samples were prepared in duplicate from 10 mM DMSO stock solution. […] After one night, the solutions were filtered using a microtiter filter plate. Then the filtrate and its 1/10 dilution were analyzed by HPLC-UV.

Data set [3] deals with human TLR7 (Homo sapiens (Human), UniProt Q9NYK1). Briefly: HEK-Blue-hTLR7 cells assay (SEAP reporter). The conditions noted are these: 20 hrs. The data set is classed as cell-based. The procedure: A stable HEK-Blue-hTLR7 cell line was purchased from InvivoGen (Cat.#: hkb-htlr7, San Diego, Calif., USA). These cells were designed for studying the stimulation of human TLR7 by monitoring the activation of NF-κB. […] Therefore the reporter expression was regulated by the NF-κB promoter upon stimulation of human TLR7 for 20 hrs. The cell culture supernatant SEAP reporter activity was determined using QUANTI-Blue™ kit (Cat.#: rep-qb1, Invivogen, San Diego, Ca, USA) at a wavelength of 640 nm, a detection medium that turns purple or blue in the presence of alkaline phosphatase.
(§1) HEK-Blue-hTLR7 cells were incubated at a density of 250,000˜450,000 cells/mL in a volume of 180 μL in a 96-well plate in Dulbecco's Modified Eagle's medium (DMEM) containing 4.5 g/L glucose, 50 U/mL penicillin, […], […], 2 mM L-glutamine, 10% (V/V) heat-inactivated fetal bovine serum for 24 hrs. Then the HEK-Blue-hTLR-7 cells were incubated with addition of 20 μL test compound in a serial dilution in the presence of final DMSO at 1% and perform incubation under 37° C. in a CO2 incubator for 20 hrs. Then 20 μL of the supernatant from each well was incubated with 180 μL Quanti-blue substrate solution at 37° C. for 2 hrs and the absorbance was read at 620˜655 nm using a spectrophotometer. The signalling pathway that TLR7 activation leads to downstream NF-κB activation has been widely accepted, and therefore similar reporter assay was also widely used for evaluating TLR7 agonist (Tsuneyasu Kaisho and Takashi Tanaka, Trends in Immunology, Volume 29, Issue 7, July 2008, […]; Hiroaki Hemmi et al, Nature Immunology 3, 196-200 (2002)).

Data set [4] addresses human TLR8 (Homo sapiens (Human), UniProt Q9NR97). Briefly: HEK-Blue-hTLR8 cells assay and selectivity index. The data set is classed as cell-based. The conditions noted are these: for Selective index: EC50(TLR8) value/EC50(TLR7) value. As to the method:
A stable HEK-Blue-hTLR8 cell line was purchased from InvivoGen (Cat.#: HEK-Blue-htlr8, San Diego, Calif., USA). These cells were designed for studying the stimulation of human TLR8 by monitoring the activation of NF-κB. […] Therefore the reporter expression was regulated by the NF-κB promoter upon stimulation of human TLR8 for 20 hrs. The cell culture supernatant SEAP reporter activity was determined using QUANTI-Blue™ kit (Cat.#: rep-qb1, Invivogen, San Diego, Ca, USA) at a wavelength of 640 nm, a detection medium that turns purple or blue in the presence of alkaline phosphatase.
as §1, with “HEK-Blue-hTLR8 cells” for “HEK-Blue-hTLR7 cells”, “the HEK-Blue-hTLR8” for “the HEK-Blue-hTLR-7”, “2 hours” for “2 hrs”, “that TLR8” for “that TLR7”, “evaluating TLR8” for “evaluating TLR7”
The ratio of TLR8 agonism activity compared to TLR7 agonism activity was defined as the selectivity index (EC50 (TLR8) value/EC50(TLR7) value) and calculated accordingly.

Where [5] appears, read: read-out: HEK-Blue-hTLR7 (EC50 (μM)).

Structures are written as SMILES. Converted amounts (≈) assume the structure as drawn. Where two headings read alike, the source gives them in different places. Where only a bound is given, the exact number is not on record here.

Chain of human TLR8 (Q9NR97 27-1041): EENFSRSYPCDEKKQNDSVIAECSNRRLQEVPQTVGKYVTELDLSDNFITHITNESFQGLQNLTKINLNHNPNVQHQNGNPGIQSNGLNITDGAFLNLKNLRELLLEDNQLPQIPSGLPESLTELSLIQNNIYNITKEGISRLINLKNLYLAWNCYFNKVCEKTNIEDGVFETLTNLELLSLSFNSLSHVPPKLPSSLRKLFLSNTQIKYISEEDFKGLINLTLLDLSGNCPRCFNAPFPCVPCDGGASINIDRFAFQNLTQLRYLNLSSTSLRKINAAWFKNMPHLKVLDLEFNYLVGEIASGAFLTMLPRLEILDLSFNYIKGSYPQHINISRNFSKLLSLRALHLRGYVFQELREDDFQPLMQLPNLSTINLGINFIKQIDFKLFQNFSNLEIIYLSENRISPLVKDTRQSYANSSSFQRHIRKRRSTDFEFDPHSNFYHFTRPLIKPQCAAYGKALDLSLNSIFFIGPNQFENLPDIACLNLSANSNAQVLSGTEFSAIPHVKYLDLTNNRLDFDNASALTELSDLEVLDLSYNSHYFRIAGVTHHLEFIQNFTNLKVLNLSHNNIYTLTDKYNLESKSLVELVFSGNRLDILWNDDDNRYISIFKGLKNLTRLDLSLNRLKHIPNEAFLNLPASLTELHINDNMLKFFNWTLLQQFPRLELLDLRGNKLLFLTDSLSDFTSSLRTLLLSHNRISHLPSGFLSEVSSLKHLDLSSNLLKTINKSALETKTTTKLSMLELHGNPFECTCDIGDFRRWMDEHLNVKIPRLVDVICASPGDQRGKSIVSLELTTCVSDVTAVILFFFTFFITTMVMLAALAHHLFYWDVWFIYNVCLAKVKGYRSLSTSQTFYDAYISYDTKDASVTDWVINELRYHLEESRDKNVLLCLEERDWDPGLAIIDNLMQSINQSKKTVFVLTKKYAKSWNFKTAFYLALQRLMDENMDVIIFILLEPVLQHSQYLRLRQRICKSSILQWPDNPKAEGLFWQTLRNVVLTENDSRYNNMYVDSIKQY
Chain of human TLR7 (Q9NYK1 27-1049): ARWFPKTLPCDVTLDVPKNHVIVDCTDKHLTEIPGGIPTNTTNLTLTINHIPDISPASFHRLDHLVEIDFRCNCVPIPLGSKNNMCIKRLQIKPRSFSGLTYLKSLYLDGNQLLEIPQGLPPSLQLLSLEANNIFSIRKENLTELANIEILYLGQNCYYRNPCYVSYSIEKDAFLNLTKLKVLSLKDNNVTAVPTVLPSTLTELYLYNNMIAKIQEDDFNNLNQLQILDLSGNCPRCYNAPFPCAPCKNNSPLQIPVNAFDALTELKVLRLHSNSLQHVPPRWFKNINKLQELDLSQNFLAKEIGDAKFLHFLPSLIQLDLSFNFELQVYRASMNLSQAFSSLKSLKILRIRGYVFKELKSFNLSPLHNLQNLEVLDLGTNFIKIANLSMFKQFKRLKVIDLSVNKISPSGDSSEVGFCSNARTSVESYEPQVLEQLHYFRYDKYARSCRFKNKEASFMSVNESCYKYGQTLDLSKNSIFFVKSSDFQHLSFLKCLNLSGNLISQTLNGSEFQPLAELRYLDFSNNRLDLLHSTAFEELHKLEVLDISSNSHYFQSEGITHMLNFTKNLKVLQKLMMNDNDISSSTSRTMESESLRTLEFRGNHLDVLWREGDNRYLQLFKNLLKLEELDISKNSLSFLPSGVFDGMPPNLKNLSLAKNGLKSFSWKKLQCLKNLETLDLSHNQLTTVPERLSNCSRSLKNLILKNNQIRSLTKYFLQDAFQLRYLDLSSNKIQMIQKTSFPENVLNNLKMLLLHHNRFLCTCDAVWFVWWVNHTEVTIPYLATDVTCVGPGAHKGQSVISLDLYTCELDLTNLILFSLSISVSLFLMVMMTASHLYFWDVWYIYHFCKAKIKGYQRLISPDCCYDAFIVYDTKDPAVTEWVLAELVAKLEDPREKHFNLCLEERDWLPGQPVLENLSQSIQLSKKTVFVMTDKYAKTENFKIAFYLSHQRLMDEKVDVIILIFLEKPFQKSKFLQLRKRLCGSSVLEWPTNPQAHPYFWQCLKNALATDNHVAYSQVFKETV

As usually defined, the solubility (thermodynamic) is solubility found after equilibrating the solid with the medium. One may read the EC50 as the concentration that produces a half-maximal response. Turning to `COCCS(=N)(=O)c1nc(N)c2[nH]c(=O)n(Cc3ccccc3)c2n1` (centres unmarked) [Example 3, 6-Amino-9-benzyl-2-(2-methoxyethylsulfonimidoyl)-7H-purin-8-one], the “Human Liver Microsome Clearance” value in data set [1] is less than 6.15 mL/min/kg. The compound further had a solubility (thermodynamic) in data set [2] of 300 µg/mL (≈ 828 µM). In addition, the EC50 in data set [3] (setting [5]) is 0.33 µM.
Take `CCS(=N)(=O)c1nc(N)c2[nH]c(=O)n(Cc3ccccc3)c2n1` (centres unmarked) [Example 2, 6-Amino-9-benzyl-2-(ethylsulfonimidoyl)-7H-purin-8-one]: in data set [1], the “Human Liver Microsome Clearance” value is less than 6.15 mL/min/kg. In data set [2], this compound registered a thermodynamic solubility of 29 µg/mL (≈ 87.2 µM). For the same compound, in data set [3] (setting [5]), the EC50 came out at 0.2 µM.
As for `CCCCS(=N)(=O)c1nc(N)c2[nH]c(=O)n(Cc3ccccc3)c2n1` (centres unmarked) [Example 5, 6-Amino-9-benzyl-2-(butylsulfonimidoyl)-7H-purin-8-one], the “Human Liver Microsome Clearance” value in data set [1] is less than 6.15 mL/min/kg. This compound had a thermodynamic solubility in data set [2] of 40 µg/mL (≈ 111 µM). The EC50 in data set [3] (setting [5]) came out at 0.32 µM.
Consider `CS(=N)(=O)c1nc(N)c2[nH]c(=O)n(Cc3ccncc3)c2n1` (centres unmarked) [Example 20, 6-Amino-2-(methylsulfonimidoyl)-9-(4-pyridylmethyl)-7H-purin-8-one], for which, in data set [4], the EC50 was more than 1000 µM and the Selective index is on record as more than 3846. The half-maximal effective concentration (EC50) in data set [3] (setting [5]) was determined as 0.26 µM.
Consider `CNC(=O)c1nc(N)c2[nH]c(=O)n(Cc3ccccc3)c2n1` [Example P-5, reference compound], for which the EC50 in data set [4] (HEK-Blue-hTLR8 cells, SEAP reporter, 20 hrs, read-out: HEK Blue hTLR-8 EC50) is more than 1000 µM; in data set [3] (setting [5]), 3.14 µM.
For the compound `CCS(=N)(=O)c1nc(N)c2[nH]c(=O)n(Cc3ccc(C)cc3)c2n1` (single isomer, unassigned) [Example 71-B, 6-Amino-2-(ethylsulfonimidoyl)-9-(p-tolylmethyl)-7H-purin-8-one], the “Human Liver Microsome Clearance” value in data set [1] is given as less than 6.15 mL/min/kg. In addition, in data set [2], the “LYSA” value was determined as 13 µg/mL.
With `CCS(=N)(=O)c1nc(N)c2[nH]c(=O)n(Cc3ccc(F)cc3)c2n1` (centres unmarked) [Example 72, 6-Amino-2-(ethylsulfonimidoyl)-9-[(4-fluorophenyl)methyl]-7H-purin-8-one], in data set [1], the “Human Liver Microsome Clearance” value is less than 6.15 mL/min/kg. Further, the solubility (thermodynamic) in data set [2] was found to be 152 µg/mL (≈ 434 µM).
As for `CCS(=N)(=O)c1nc(N)c2[nH]c(=O)n(Cc3ccc(F)cc3)c2n1` (single isomer, unassigned) [Example 72-B, 6-Amino-2-(ethylsulfonimidoyl)-9-[(4-fluorophenyl)methyl]-7H-purin-8-one], in data set [1], the “Human Liver Microsome Clearance” value was less than 6.15 mL/min/kg. In addition, the “LYSA” value in data set [2] turned out to be 115 µg/mL.
Turning to `CCCS(=N)(=O)c1nc(N)c2[nH]c(=O)n(Cc3ccc(F)cc3F)c2n1` (centres unmarked) [Example 31, 6-Amino-9-[(2,4-difluorophenyl)methyl]-2-(propylsulfonimidoyl)-7H-purin-8-one], the “Human Liver Microsome Clearance” value in data set [1] was less than 6.15 mL/min/kg. Moreover, the EC50 in data set [3] (setting [5]) came out at 0.04 µM.
Regarding `CCCS(=N)(=O)c1nc(N)c2[nH]c(=O)n(Cc3ccc(C(N)=O)cc3)c2n1` (centres unmarked) [Example 33, 4-[[6-amino-8-oxo-2-(propylsulfonimidoyl)-7H-purin-9-yl]methyl]benzamide], the “Human Liver Microsome Clearance” value in data set [1] is less than 6.15 mL/min/kg. The compound further came in with a solubility (thermodynamic) in data set [2] of 79 µg/mL (≈ 203 µM). In data set [3] (setting [5]), the EC50 is 0.066 µM.
`CS(=N)(=O)c1nc(N)c2[nH]c(=O)n(Cc3ccc(Cl)cc3)c2n1` (centres unmarked) [Example 13, 6-Amino-9-[(4-chlorophenyl)methyl]-2-(methylsulfonimidoyl)-7H-purin-8-one]: in data set [4], a half-maximal response (EC50) required 300 µM and the Selective index was 6977. This compound also yielded a thermodynamic solubility in data set [2] of 10 µg/mL (≈ 28.3 µM). Further, the concentration for a half-maximal effect (EC50) in data set [3] (setting [5]) is 0.043 µM.
Take `CCCS(=N)(=O)c1nc(N)c2[nH]c(=O)n(Cc3ccc(C(=O)NCCOC)cc3)c2n1` (centres unmarked) [Example 40, 4-[[6-Amino-8-oxo-2-(propylsulfonimidoyl)-7H-purin-9-yl]methyl]-N-(2-methoxyethyl)benzamide]: in data set [1], the “Human Liver Microsome Clearance” value is less than 6.15 mL/min/kg. Besides, the solubility (thermodynamic) in data set [2] amounted to 168 µg/mL (≈ 375 µM). For the same compound, the EC50 in data set [3] (setting [5]) came to 0.15 µM.
In the same order, the values of `CCCS(=N)(=O)c1nc(N)c2[nH]c(=O)n(Cc3cncnc3)c2n1` (centres unmarked) [Example 43, 6-Amino-2-(propylsulfonimidoyl)-9-(pyrimidin-5-ylmethyl)-7H-purin-8-one] are less than 6.15 mL/min/kg, more than 465 µg/mL and 0.24 µM.
In the case of `CS(=N)(=O)c1nc(N)c2[nH]c(=O)n(Cc3ccccc3)c2n1` (single isomer, unassigned) [Example 1-A, 6-Amino-9-benzyl-2-(methylsulfonimidoyl)-7H-purin-8-one], the “Human Liver Microsome Clearance” value in data set [1] is less than 6.15 mL/min/kg. For the same compound, the “LYSA” value in data set [2] was 85 µg/mL.
In data set [4], `CS(=N)(=O)c1nc(N)c2[nH]c(=O)n(Cc3cccnc3)c2n1` (centres unmarked) [Example 16, 6-Amino-2-(methylsulfonimidoyl)-9-(3-pyridylmethyl)-7H-purin-8-one] gave a concentration giving a half-maximal response (EC50) of more than 1000 µM and a Selective index of more than 4546. Also, the EC50 in data set [3] (setting [5]) stood at 0.22 µM.
For `CCCS(=N)(=O)c1nc(N)c2[nH]c(=O)n(Cc3ccc(S(C)(=O)=O)cc3)c2n1` (centres unmarked) [Example 37, 6-Amino-9-[(4-methylsulfonylphenyl)methyl]-2-(propylsulfonimidoyl)-7H-purin-8-one], the “Human Liver Microsome Clearance” value in data set [1] was less than 6.15 mL/min/kg. Besides, the concentration giving a half-maximal response (EC50) in data set [3] (setting [5]) came out at 0.023 µM.
With `CCCS(=N)(=O)c1nc(N)c2[nH]c(=O)n(Cc3ccc(C#N)cc3)c2n1` (centres unmarked) [Example 32, 4-[[6-Amino-8-oxo-2-(propylsulfonimidoyl)-7H-purin-9-yl]methyl]benzonitrile], the “Human Liver Microsome Clearance” value in data set [1] is less than 6.15 mL/min/kg. In data set [2], this compound came in with a thermodynamic solubility of 18 µg/mL (≈ 48.5 µM). Moreover, the midpoint of the response in data set [3] (HEK-Blue-hTLR7 (EC50 (μM))), the EC50, lay at 0.054 µM.
Consider `CCCS(=N)(=O)c1nc(N)c2[nH]c(=O)n(Cc3cnc(C)nc3)c2n1` (centres unmarked) [Example 44, 6-Amino-9-[(2-methylpyrimidin-5-yl)methyl]-2-(propylsulfonimidoyl)-7H-purin-8-one], for which, in data set [1], the “Human Liver Microsome Clearance” value is given as less than 6.15 mL/min/kg. Also, the solubility (thermodynamic) in data set [2] was 357 µg/mL (≈ 985 µM). For the same compound, in data set [3] (setting [5]), the EC50 was found to be 0.136 µM.
Regarding `CCS(=N)(=O)c1nc(N)c2[nH]c(=O)n(Cc3ccc(F)cc3)c2n1` (single isomer, unassigned) [Example 72-A, 6-Amino-2-(ethylsulfonimidoyl)-9-[(4-fluorophenyl)methyl]-7H-purin-8-one], the “Human Liver Microsome Clearance” value in data set [1] is less than 6.15 mL/min/kg. Moreover, the solubility (thermodynamic) in data set [2] amounted to 90 µg/mL (≈ 257 µM).
